{
  "source": "paper PMC11211886",
  "about": "(Frontiers in Pharmacology, 2024)",
  "key": {"plasma proteins": {"test_system": "plasma proteins", "experiment": "Plasma protein binding (RED), monkey plasma", "format": "in vitro ADME", "experimental": "The plate containing plasma and buffer was equilibrated for 6 h in a 37°C water shaking bath. After incubation, aliquots of buffer and plasma (20 µL) on both sides were collected and precipitated using organic solvents. […] The post-dialysis recovery of amdizalisib was also measured."}, "[1]": {"experiment": "Whole blood-to-plasma partition, human blood", "format": "in vitro ADME", "experimental": "The whole blood and plasma samples were incubated at 37°C for up to 1 h. Serial samples (150 µL) were collected at different time points (0, 10, and 60 min) and transferred into new tubes. The whole blood samples were then centrifuged at 1700 g for 15 min to harvest plasma."}, "CYP1A2": {"target": "T1, CYP1A2 (Homo sapiens, UniProt P05177)", "T1 construct": "tissue Life Technologies (Durham, NC, USA); host or cells: human liver microsomes", "T1 sequence (P05177 1-516)": "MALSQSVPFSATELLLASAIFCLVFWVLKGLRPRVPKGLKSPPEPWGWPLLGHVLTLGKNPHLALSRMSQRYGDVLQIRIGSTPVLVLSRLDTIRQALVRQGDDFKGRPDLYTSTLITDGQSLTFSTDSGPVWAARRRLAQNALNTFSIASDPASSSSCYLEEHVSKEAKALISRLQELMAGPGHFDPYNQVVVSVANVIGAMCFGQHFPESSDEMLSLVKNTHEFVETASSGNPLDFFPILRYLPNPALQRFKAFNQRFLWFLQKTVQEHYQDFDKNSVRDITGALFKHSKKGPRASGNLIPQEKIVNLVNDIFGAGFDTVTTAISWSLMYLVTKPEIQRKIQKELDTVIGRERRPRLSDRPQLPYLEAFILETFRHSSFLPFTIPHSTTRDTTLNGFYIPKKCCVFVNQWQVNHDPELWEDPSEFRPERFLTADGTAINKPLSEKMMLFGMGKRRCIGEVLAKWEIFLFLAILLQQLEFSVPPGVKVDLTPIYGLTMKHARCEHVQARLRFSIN", "experiment": "Reversible CYP inhibition in HLM, CYP1A2 (phenacetin)", "format": "in vitro ADME", "details": "for enzyme activity remaining: CYP1A2, HLM", "experimental": "The markers used to determine the activities of CYP isoforms were phenacetin O-deethylation for CYP1A2 (probe substrate: 50 µM phenacetin), bupropion hydroxylation for CYP2B6 (probe substrate: 70 µM bupropion), paclitaxel 6α-hydroxylation for CYP2C8 (probe substrate: 10 µM paclitaxel), diclofenac 4′-hydroxylation for CYP2C9 (probe substrate: 5 µM diclofenac), S-(+)-mephenytoin 4′-hydroxylation for CYP2C19 (probe substrate: 20 µM S-(+)-mephenytoin), dextromethorphan O-demethylation for CYP2D6 (probe substrate: 6 µM dextromethorphan), chlorzoxazone 6′-hydroxylation for CYP2E1 (probe substrate: 70 µM chlorzoxazone), and testosterone 6β-hydroxylation and midazolam 1′-hydroxylation for CYP3A4/5 (probe substrate: 45 µM testosterone and 5 µM midazolam). […] Alpha-naphthoflavone (0.04 µM), 2-phenyl-2-(1-piperidinyl)propane (5 µM), quercetin (1 µM), sulfaphenazole (0.5 µM), ticlopidine (4 µM), quinidine (0.2 µM), diethyldithiocarbamate (20 µM), and ketoconazole (0.05 µM) were used as positive inhibitors of CYP1A2, 2B6, 2C8, 2C9, 2C19, 2D6, 2E1, and 3A4, respectively. The vehicle control was prepared in the same composition as inhibitor solutions but free of inhibitors. The concentrations of probe substrates were close to Km values that were determined in-house and within the range recommended by the FDA ([Huang et al., 2007]). Reaction mixtures were incubated at 37°C for 5, 20, or 30 min, depending on the probe substrates of CYP isoforms. The reactions were terminated by adding cold acetonitrile containing IS, and the terminated incubation mixtures were centrifuged at 3,000 g for 10 min before LC-MS/MS analysis."}, "CYP2C19": {"test_system": "CYP2C19", "experiment": "CYP induction in human hepatocytes, CYP2C19 enzyme activity", "format": "in vitro ADME", "experimental": "(§1) […] […] […] Enzyme activity for each CYP isoform was reported as a fold change over vehicle control and the percent of positive control (detailed calculation in Supplementary 1.1). Hepatocytes were harvested with a lysis buffer from RNeasy 96 Kit (Qiagen Inc., Germantown, MD, USA) to isolate RNA, which was analyzed by real-time quantitative polymerase chain reaction (RT-PCR). […] Emax (the maximal observed induction) and EC50 (the concentration that supports half-maximal induction) were estimated by non-linear regression of fold increase in CYP mRNA expression versus concentration plots.\nThe fold of vehicle control and the percent of positive control were calculated with the formulas below:\nFold of vehicle control = CYPs activity of test compound (or positive control) treated sample / CYPs activity of vehicle control treated sample\n(§2) % of positive control = [(fold change in treated sample)-1] / [(fold change in positive control)-1] × 100\nBased on the enzyme activity, a minimum of 2-fold increase compared to vehicle control for the positive control and ≥40% of the positive control for the test article was considered as the cutoff for a positive signal in in vitro induction assay."}, "CYP2B6 mRNA": {"test_system": "CYP2B6 mRNA", "experiment": "CYP induction in human hepatocytes, CYP2B6 mRNA (RT-PCR)", "experimental": "as §1, §2\nBased on the gene expression, a minimum of 4-fold increase of positive control compared to vehicle control, a minimum of 2-fold increase of the test article compared vehicle control and increased in a concentration-dependent manner was considered as the cutoff for a positive signal in in vitro induction assay."}},
  "note": "Several values for one entry are separate records, joined by “and”; a condition that tells them apart may be missing. Equal entries are not always repeated.",
  "data": [
    {"smiles": "C[C@H](Nc1ncnc(N)c1C#N)c1cc2ncc(Cl)n2nc1-c1ccccc1", "note": "[Amdizalisib]", "values": [
      {"measurement": "Binding fraction to plasma proteins, Monkey", "setting": "plasma proteins; 0.1 µM", "value": "90.6 ± 4.56", "unit": "%"},
      {"measurement": "Binding fraction to plasma proteins, Monkey", "setting": "plasma proteins; 1 µM", "value": "89.7 ± 0.22", "unit": "%"},
      {"measurement": "Binding fraction to plasma proteins, Monkey", "setting": "plasma proteins; 20 µM", "value": "88.9 ± 0.38", "unit": "%"},
      {"measurement": "fuB", "setting": "[1]; human blood, 0 min", "value": 11.7, "unit": "%"},
      {"measurement": "RB", "setting": "[1]; human, 0 min, 1 µM", "value": 0.615},
      {"measurement": "fup", "setting": "[1]; human, 1 µM", "value": 0.0720},
      {"measurement": "RB", "setting": "[1]; human, 10 min, 1 μM", "value": 0.680},
      {"measurement": "fuB", "setting": "[1]; human, 10 min, 1 μM", "value": 10.6, "unit": "%"},
      {"measurement": "RB", "setting": "[1]; human, 60 min, 1 μM", "value": 0.797},
      {"measurement": "fuB", "setting": "[1]; human, 60 min, 1 μM", "value": 9.02, "unit": "%"},
      {"measurement": "IC50", "setting": "CYP1A2", "value": "> 50", "unit": "µM"},
      {"measurement": "enzyme activity remaining", "setting": "CYP1A2; 0.08 μM", "value": "104% and 96.1%"},
      {"measurement": "enzyme activity remaining", "setting": "CYP1A2; 0.4 μM", "value": "102% and 99.1%"},
      {"measurement": "enzyme activity remaining", "setting": "CYP1A2; 2 μM", "value": "94.1% and 95.9%"},
      {"measurement": "enzyme activity remaining", "setting": "CYP1A2; 10 μM", "value": "97.6% and 90.1%"},
      {"measurement": "enzyme activity remaining", "setting": "CYP1A2; 50 μM", "value": "99.1% and 99.6%"},
      {"measurement": "Enzyme activity Percent of PC (%)", "setting": "CYP2C19; CYP2C19, donor eight, 0.3 µM", "value": 2.58, "unit": "%"},
      {"measurement": "Enzyme activity Percent of PC (%)", "setting": "CYP2C19; CYP2C19, donor eight, 3 µM", "value": -3.72, "unit": "%"},
      {"measurement": "Enzyme activity Percent of PC (%)", "setting": "CYP2C19; CYP2C19, donor eight, 20 µM", "value": -16.6, "unit": "%"},
      {"measurement": "Enzyme activity Percent of PC (%)", "setting": "CYP2C19; CYP2C19, donor four, 0.3 µM", "value": -2.17, "unit": "%"},
      {"measurement": "Enzyme activity Percent of PC (%)", "setting": "CYP2C19; CYP2C19, donor four, 3 µM", "value": -13.5, "unit": "%"},
      {"measurement": "Enzyme activity Percent of PC (%)", "setting": "CYP2C19; CYP2C19, donor four, 20 µM", "value": -28.3, "unit": "%"},
      {"measurement": "Enzyme activity Percent of PC (%)", "setting": "CYP2C19; CYP2C19, donor one, 0.3 µM", "value": 6.39, "unit": "%"},
      {"measurement": "Enzyme activity Percent of PC (%)", "setting": "CYP2C19; CYP2C19, donor one, 3 µM", "value": 1.83, "unit": "%"},
      {"measurement": "Enzyme activity Percent of PC (%)", "setting": "CYP2C19; CYP2C19, donor one, 20 µM", "value": -19.2, "unit": "%"},
      {"measurement": "induction of CYP2C19 enzyme activity", "setting": "CYP2C19; up to 20 µM, all three donors", "value": "no induction potential"},
      {"measurement": "R3 value (CYP2B6 induction, basic kinetic model)", "setting": "CYP2B6 mRNA", "value": "≤ 0.8"},
      {"measurement": "induction on CYP2B6 mRNA expression", "setting": "CYP2B6 mRNA; 20 uM", "value": ">2-fold induction on CYP1A2, 2B6, 3A4, 2C9 mRNA expression at 20 uM"},
      {"measurement": "Gene expression Percent of PC (%)", "setting": "CYP2B6 mRNA; CYP2B6, donor seven, 1 µM", "value": 9.50, "unit": "%"},
      {"measurement": "Gene expression Percent of PC (%)", "setting": "CYP2B6 mRNA; CYP2B6, donor seven, 3 µM", "value": 1.70, "unit": "%"},
      {"measurement": "Gene expression Percent of PC (%)", "setting": "CYP2B6 mRNA; CYP2B6, donor seven, 10 µM", "value": 60.8, "unit": "%"},
      {"measurement": "Gene expression Percent of PC (%)", "setting": "CYP2B6 mRNA; CYP2B6, donor seven, 20 µM", "value": 22.4, "unit": "%"},
      {"measurement": "Gene expression Percent of PC (%)", "setting": "CYP2B6 mRNA; CYP2B6, donor seven, 30 µM", "value": 43.7, "unit": "%"},
      {"measurement": "Gene expression Percent of PC (%)", "setting": "CYP2B6 mRNA; CYP2B6, donor six, 1 µM", "value": 2.50, "unit": "%"},
      {"measurement": "Gene expression Percent of PC (%)", "setting": "CYP2B6 mRNA; CYP2B6, donor six, 3 µM", "value": 5.50, "unit": "%"},
      {"measurement": "Gene expression Percent of PC (%)", "setting": "CYP2B6 mRNA; CYP2B6, donor six, 10 µM", "value": 34.3, "unit": "%"},
      {"measurement": "Gene expression Percent of PC (%)", "setting": "CYP2B6 mRNA; CYP2B6, donor six, 20 µM", "value": 36.8, "unit": "%"},
      {"measurement": "Gene expression Percent of PC (%)", "setting": "CYP2B6 mRNA; CYP2B6, donor six, 30 µM", "value": 25.2, "unit": "%"},
      {"measurement": "Gene expression Percent of PC (%)", "setting": "CYP2B6 mRNA; CYP2B6, donor two, 1 µM", "value": 5.40, "unit": "%"},
      {"measurement": "Gene expression Percent of PC (%)", "setting": "CYP2B6 mRNA; CYP2B6, donor two, 3 µM", "value": 2.30, "unit": "%"},
      {"measurement": "Gene expression Percent of PC (%)", "setting": "CYP2B6 mRNA; CYP2B6, donor two, 10 µM", "value": 29.6, "unit": "%"},
      {"measurement": "Gene expression Percent of PC (%)", "setting": "CYP2B6 mRNA; CYP2B6, donor two, 20 µM", "value": 18.1, "unit": "%"},
      {"measurement": "Gene expression Percent of PC (%)", "setting": "CYP2B6 mRNA; CYP2B6, donor two, 30 µM", "value": 39.0, "unit": "%"},
      {"measurement": "Emax, CYP2B6 expression", "setting": "CYP2B6 mRNA; donor seven", "value": 5.42, "unit": "fold"},
      {"measurement": "Emax, CYP2B6 expression", "setting": "CYP2B6 mRNA; donor six", "value": 7.94, "unit": "fold"},
      {"measurement": "Emax, CYP2B6 expression", "setting": "CYP2B6 mRNA; donor two", "value": 3.39, "unit": "fold"}
    ]}
  ]
}
